# Test results from patent US20250346605A1, “NEW DERIVATIVES FOR TREATING TRPM3 MEDIATED DISORDERS” (Katholieke Universiteit Leuven, priority 2022, published 2025).
# Target: T1, mouse TRPM3α2 (mTRPM3) ion channel (Mus musculus, UniProt J9SQF3)
# T1 construct: expressed in transfected cells; host or cells: Flp-In HEK293
# Test: TRPM3 ion channel driven Ca2+ uptake (Fluo-4 AM assay), PS-stimulated overexpressing HEK293 cells
# Type: cell-based
# Details: flip-in HEK293 overexpressing TRPM3, stimulated with Pregnenolone sulfate (PS) 50 μM, activity ranges A, B, C
# Method: In order to monitor the inhibition of the mouse TRPM3α2 (mTRPM3) ion channel by the compounds of the invention, a cellular system making use of an mTRPM3alpha2 or hTRPM3 overexpressing cell line (flip-in HEK293) was used. The TRPM3 channel was stimulated/opened with Pregnenolone sulfate (PS) (50 μM) which results in Ca^2+ influx.
# For mTRPM3, the intracellular Ca^2+ was measured with a Calcium responsive dye, Fluor-4 AMV ester (Invitrogen). Cells were cultured until a confluence of 80-90%, washed with Versene (Invitrogen) and detached from the surface by a short incubation with 0.05% Trypsin (Invitrogen). The trypsination process was stopped by the addition of complete cell culture medium (DMEM, glutamax, 10% FCS, NEAA, Pen-Strep). Cells were collected and resuspended in Krebs buffer without Calcium at RT.
# Prior the cell seeding (±2000 cells/well into a black, 384 well plate (Greiner)) the diluted compound was added in the assay plate, together with the PS dissolved in Krebs buffer containing Calcium. […] Directly after cell addition the plates were read on an Envision fluorescence reader (Perkin Elmer) by an Excitation of 485 nm and emission at 535 nm.
# Channel inhibition was calculated compared to a non-PS stimulated control versus a condition stimulated with PS (50 μM) with vehicle. The ability of the compounds of the invention to inhibit this activity was determined as: Percentage inhibition=[1-((RFU determined for sample with test compound present−RFU determined for sample with positive control inhibitor) divided by (RFU determined in the presence of vehicle−RFU determined for sample with positive control inhibitor))]*100.
# The activities of the Example compounds tested are depicted in the table below. The activity ranges A, B and C refer to IC50 values in the Fluo-4 AM assay as follows: “A”: IC50<1 μM; “B”: 1 μM≤IC50≤20 μM and “C”: IC50>20 μM
# T1 sequence (J9SQF3 1-1709 isoform J9SQF3-12): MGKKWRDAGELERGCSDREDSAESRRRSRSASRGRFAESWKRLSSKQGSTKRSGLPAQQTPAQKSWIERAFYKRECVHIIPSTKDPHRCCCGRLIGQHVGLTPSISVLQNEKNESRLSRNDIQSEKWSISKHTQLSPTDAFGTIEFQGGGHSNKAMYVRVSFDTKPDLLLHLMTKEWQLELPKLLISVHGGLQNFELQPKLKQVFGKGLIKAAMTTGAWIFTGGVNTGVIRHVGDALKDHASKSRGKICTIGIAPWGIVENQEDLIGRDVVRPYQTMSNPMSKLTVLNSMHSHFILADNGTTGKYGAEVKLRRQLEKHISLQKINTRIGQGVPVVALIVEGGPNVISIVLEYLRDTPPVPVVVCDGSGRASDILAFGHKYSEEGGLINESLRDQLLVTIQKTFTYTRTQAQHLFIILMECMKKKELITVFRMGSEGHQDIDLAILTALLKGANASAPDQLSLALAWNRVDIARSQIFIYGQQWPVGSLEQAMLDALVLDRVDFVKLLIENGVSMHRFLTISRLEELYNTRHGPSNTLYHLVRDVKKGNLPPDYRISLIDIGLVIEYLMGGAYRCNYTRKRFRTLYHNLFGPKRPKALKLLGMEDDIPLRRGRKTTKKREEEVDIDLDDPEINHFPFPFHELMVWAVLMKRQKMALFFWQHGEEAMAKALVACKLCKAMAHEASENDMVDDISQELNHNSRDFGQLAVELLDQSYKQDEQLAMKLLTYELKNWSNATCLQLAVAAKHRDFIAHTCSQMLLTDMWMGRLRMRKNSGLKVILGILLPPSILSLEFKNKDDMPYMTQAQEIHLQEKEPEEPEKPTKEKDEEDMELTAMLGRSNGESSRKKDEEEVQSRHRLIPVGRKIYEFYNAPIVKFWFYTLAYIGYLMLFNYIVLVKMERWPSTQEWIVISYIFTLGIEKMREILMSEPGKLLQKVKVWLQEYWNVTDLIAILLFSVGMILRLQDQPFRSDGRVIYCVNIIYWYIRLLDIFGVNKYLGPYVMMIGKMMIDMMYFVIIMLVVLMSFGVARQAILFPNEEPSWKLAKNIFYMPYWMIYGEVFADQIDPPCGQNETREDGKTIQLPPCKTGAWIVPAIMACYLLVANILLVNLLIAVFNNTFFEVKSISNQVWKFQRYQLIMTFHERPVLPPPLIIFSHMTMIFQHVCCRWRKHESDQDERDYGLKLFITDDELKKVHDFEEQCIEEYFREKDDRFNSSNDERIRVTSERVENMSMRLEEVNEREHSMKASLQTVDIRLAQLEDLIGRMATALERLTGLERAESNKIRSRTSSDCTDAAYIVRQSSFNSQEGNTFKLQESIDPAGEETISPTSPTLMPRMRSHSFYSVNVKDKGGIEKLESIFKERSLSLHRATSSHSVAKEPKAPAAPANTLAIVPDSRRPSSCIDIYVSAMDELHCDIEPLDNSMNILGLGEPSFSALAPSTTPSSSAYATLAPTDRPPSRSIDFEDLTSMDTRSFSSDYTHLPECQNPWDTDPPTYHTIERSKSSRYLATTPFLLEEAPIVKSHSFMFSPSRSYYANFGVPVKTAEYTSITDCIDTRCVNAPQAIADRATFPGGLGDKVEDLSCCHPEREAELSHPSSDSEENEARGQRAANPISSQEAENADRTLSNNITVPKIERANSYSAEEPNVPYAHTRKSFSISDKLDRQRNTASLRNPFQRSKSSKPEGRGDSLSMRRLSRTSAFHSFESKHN
row,SMILES,IC50 [µM]
1,"Cc1oc2cnc(OCc3ccccn3)cc2c1C(=O)NC1CCN(CCO)C1=O (stereo not shown) [Cpd 027, N-[1-(2-hydroxyethyl)-2-oxopyrrolidin-3-yl]-2-methyl-5-[(pyridin-2-yl)methoxy]furo[2,3-c]pyridine-3-carboxamide]",1 to 20
2,"Cc1oc2cnc(OCc3ccccc3)cc2c1C(=O)NC1CNCC1(F)F (single isomer, unassigned) [Cpd 015-En2, 5-(benzyloxy)-N-(4,4-difluoropyrrolidin-3-yl)-2-methylfuro[2,3-c]pyridine-3-carboxamide]",< 1
3,"Cc1oc2cnc(OCc3ccccc3)cc2c1C(=O)NC1(CO)CCOCC1 [Cpd 016, 5-(benzyloxy)-N-[4-(hydroxymethyl)oxan-4-yl]-2-methylfuro[2,3-c]pyridine-3-carboxamide]",> 20
4,"Cc1oc2cnc(OCc3ccccn3)cc2c1C(=O)NC1(CO)COC1 [Cpd 034, N-[3-(hydroxymethyl)oxetan-3-yl]-2-methyl-5-[(pyridin-2-yl)methoxy]furo[2,3-c]pyridine-3-carboxamide]",> 20
